In patent US20220313634A1, “AGENT FOR THE PROPHYLACTIC AND/OR SUPPORTIVE THERAPEUTIC TREATMENT OF PARKINSON'S DISEASE” (priority 2017, published 2022):

Tested on: Parkinson's patients
Assay: Patient studies of butyric acid/butyrate given with physician-directed medication
Type: in vivo, human
Protocol: The effect of butyric acid/butyrate was investigated in patient studies in which more than 1,000 test subjects have participated for at least one year each. A total amount of 6 g butyric acid or butyrate (as salt) was administered together with the physician-directed medication (levodopa etc.) in three daily doses with meals in the morning, at noon and in the evening.
This is especially important because the usual medication for Parkinson's patients, not only with levodopa, can lead to considerable side effects such as dizziness, nausea, tachyarrhythmia, psychosis, dyskinesia and circulatory problems.

CCCC(=O)O [butyric acid/butyrate, butyric acid]
general condition, in particular with respect to the motor functions (more than 1,000 test subjects, at least one year each, total 6 g butyric acid or butyrate (as salt) in three daily doses with meals, together with levodopa etc.): Significant improvements
reduction of the amount of dopamine used by Parkinson's patients (patients treated with butyric acid/butyrate): at least 50%
reduction of the amount of dopamine used by Parkinson's patients, in some cases (patients treated with butyric acid/butyrate, in some cases): up to 90%
